The subject of assay [1] is IL-6 cytokine output from THP-1s. As to the kind of experiment: THP-1 AlphaLISA IL-6 cytokine assay. Type of assay: cell-based, human. Conditions: Homo sapiens; PMA-differentiated THP-1 cells, LPS 24 hr then Nigericin 1 hour. On the procedure:
Measuring Inhibitory Effects on IL-1β and IL-6 Cytokine Output from THP-1s
The cytokine inhibition profiles of compounds of formula (IW-1) were determined in a differentiated THP-1 cell assay. All assays were performed in RPMI-1640 growth medium (Gibco), supplemented with 10% fetal bovine serum (FBS; Gibco), 1% penicillin-streptomycin and 1% sodium pyruvate unless specified otherwise. The IL-1β and IL-6 cytokine inhibition assays were each run in a background of differentiated THP-1 cells as described below. All reagents described were from Sigma-Aldrich unless specified otherwise. Compounds were prepared as 10 mM DMSO stocks.
THP-1 cells were expanded as a suspension up to 80% confluence in appropriate growth medium. Cells were harvested, suspended, and treated with an appropriate concentration of phorbol 12-myristate 13-acetate (PMA) over a 72 hr period (37° C./5% CO2).
Following 72 hrs of THP-1 cell incubation, cellular medium was removed and replaced with fresh growth media containing 1% of FBS. Working concentrations of compounds were prepared separately in 10% FBS treated growth medium and pre-incubated with the cells for 30 minutes (37° C./5% CO2). Following the 30 minute compound pre-incubation, THP-1s were treated with an appropriate concentration of LPS and the THP-1s were subsequently incubated for a 24 hr period (37° C./5% CO2). An appropriate final concentration of Nigericin was then dispensed into the THP-1 plates and incubated for 1 hour (37° C./5% CO2) before THP-1 supernatants were harvested and collected in separate polypropylene 96-well holding plates.
Reagents from each of the IL-1β and IL-6 commercial kits (Perkin Elmer) were prepared and run according to the manufacturer's instructions. Subsequently, fluorescence signal detection in a microplate reader was measured (EnVision® Multilabel Reader, Perkin Elmer).
Percentage inhibition was calculated per cytokine by normalising the sample data to the high and low controls used within each plate (+/−LPS respectively). Percentage inhibition was then plotted against compound concentration and the 50% inhibitory concentration (IC50) was determined from the resultant concentration-response curve.

Assay [2] relates to IL-1β cytokine output from THP-1s. As to the kind of experiment: THP-1 AlphaLISA IL-1β cytokine assay. The conditions noted are these: Homo sapiens, THP-1, PMA-differentiated THP-1 cells, LPS 24 hr then Nigericin 1 hour; read-out: IL-1β (IC50). Type of assay: cell-based, human. In outline:
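PMA-differentiated THP-1 cells (72 h) were pre-incubated 30 min with compound, then LPS-primed 24 h and pulsed with nigericin for 1 h at 37 °C. Supernatant cytokine was quantified by AlphaLISA; % inhibition was normalised to +/−LPS plate controls and IC50 taken from concentration-response curves.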
For orientation: Alpha assays give light when donor and acceptor beads are brought close together.

16 compounds from US12390437B2, “Itaconic acid derivatives and uses thereof intreating an inflammatory disease or a disease associated with an undesirable immune response” (Sitryx Therapeutics Limited, priority 2019, dated 2025) can be followed below.

In general, IC50 refers to the concentration at which inhibition is half-maximal. In the case of `C=C(CC(=O)OCCCCCCCC)C(=O)OC1CC(F)(F)C1` [Example 185, 1-(3,3-difluorocyclobutyl) 4-octyl 2-methylenesuccinate], the half-inhibitory concentration (IC50) in assay [1] was 8.8 µM; in assay [2] it was 21.6 µM.

For `C=C(CC(=O)OC(C)C)C(=O)OCCS(C)(=O)=O` [Example 22, 4-isopropyl 1-(2-(methylsulfonyl)ethyl) 2-methylenesuccinate], the half-inhibitory concentration (IC50) was determined as 7 µM in assay [1] and 15.4 µM in assay [2].

Consider `C=C(CC(=O)OCC(C)(C)C)C(=O)OCCC(=O)O` [Example 83, 3-((2-methylene-4-(neopentyloxy)-4-oxobutanoyl)oxy)propanoic acid], for which the 50% inhibitory concentration (IC50) in assay [1] worked out at 96.9 µM; in assay [2], 34.2 µM.

In the case of `C=C(CC(=O)OC1CCC1)C(=O)OCC(=O)O` [Example 116, 2-((4-cyclobutoxy-2-methylene-4-oxobutanoyl)oxy)acetic acid], the IC50 in assay [1] is 60.4 µM; in assay [2] it was 100 µM.

Turning to `C=C(CC(=O)O[C@@H](C)CCCCCC)C(=O)OC1CS(=O)(=O)C1` [Example 67, (S)-1-(1,1-dioxidothietan-3-yl) 4-(octan-2-yl) 2-methylenesuccinate], the results for the half-maximal inhibitory concentration (IC50) in assay [1] and in assay [2] were 4.8 µM and 5.7 µM, respectively.

`C=C(CC(=O)OC1CCCCC1)C(=O)OCC(C)(C)C(=O)O` [Example 117, 3-((4-(cyclohexyloxy)-2-methylene-4-oxobutanoyl)oxy)-2,2-dimethylpropanoic acid]: the IC50 in assay [1] is 43.9 µM; in assay [2], 100 µM.

With `C=C(CC(=O)OC1CCCCC1)C(=O)OC(C)C(=O)O` (centres unmarked) [Example 111, 2-((4-(cyclohexyloxy)-2-methylene-4-oxobutanoyl)oxy)propanoic acid], the 50% inhibitory concentration (IC50) is 70.9 µM in assay [1] and 100 µM in assay [2].

On to `C=C(CC(=O)OCCCCCCCC)C(=O)OCC(C)(C)OC` [Example 34, 1-(2-methoxy-2-methylpropyl) 4-octyl 2-methylenesuccinate], for which the values for the half-inhibitory concentration (IC50) in assay [1] and in assay [2] were 16.1 µM and 31.8 µM, respectively.

Regarding `C=C(CC(=O)OCC1CCC(F)(F)CC1)C(=O)OCC(=O)O` [Example 113, 2-((4-((4,4-difluorocyclohexyl)methoxy)-2-methylene-4-oxobutanoyl)oxy)acetic Acid], the half-inhibitory concentration (IC50) is 48.5 µM in assay [1] and 100 µM in assay [2].

Consider `C=C(CC(=O)O[C@@H](C)CCCCCC)C(=O)OC1CN(C(C)=O)C1` [Example 66, (S)-1-(1-acetylazetidin-3-yl) 4-(octan-2-yl) 2-methylenesuccinate], for which the values for the half-maximal inhibitory concentration (IC50) in assay [1] and in assay [2] were 2.5 µM and 2.3 µM, respectively.

Consider `C=C(CC(=O)OCCCCCCCC)C(=O)OCCN1CCOCC1` [Example 35, 1-(2-morpholinoethyl) 4-octyl 2-methylenesuccinate], for which the IC50 in assay [1] was 3.7 µM; in assay [2], 6.7 µM.

For `C=C(CC(=O)OCCCCCCCC)C(=O)O[C@@H]1CCOC1` [Example 24, (R)-4-octyl 1-(tetrahydrofuran-3-yl) 2-methylenesuccinate], the concentration for half-maximal inhibition (IC50) in assay [1] was determined as 4.2 µM; in assay [2] it was 15 µM.

For the compound `C=C(CC(=O)OC1CCCCC1)C(=O)OC1CCOCC1` [Example 64, 4-cyclohexyl 1-(tetrahydro-2H-pyran-4-yl) 2-methylenesuccinate], the IC50 worked out at 12.6 µM in assay [1] and 10.2 µM in assay [2].

Regarding `C=C(CC(=O)OC1CCCCCCC1)C(=O)OC1CCOCC1` [Example 70, 4-cyclooctyl 1-(tetrahydro-2H-pyran-4-yl) 2-methylenesuccinate], the IC50 is 9.4 µM in assay [1] and 6.1 µM in assay [2].

As to `C=C(C(=O)OCCS(C)(=O)=O)C(C)C(=O)OCCCCCCCC` (centres unmarked) [Example 138, 4-(2-(methylsulfonyl)ethyl) 1-octyl 2-methyl-3-methylenesuccinate], the IC50 in assay [1] stood at 5.2 µM; in assay [2] it was 6.8 µM.

Turning to `C=C(CC(=O)OCCCCCCCC)C(=O)O[C@H]1CCOC1` [Example 23, (S)-4-octyl 1-(tetrahydrofuran-3-yl) 2-methylenesuccinate], the figures for the IC50 in assay [1] and in assay [2] were 4.5 µM and 8.2 µM, respectively.
